# Data reported in patent publication US20250228242A1 (priority 2021, published 2025).
# Counter-ions that a name gives are not always drawn.
# System: P. infestans
# Assay: whole plant or invertebrate
# Format: in vivo
# Conditions: Phytophthora infestans, in Solanum tuberosum, read-out: P. infestans % inhibition
row,Structure (SMILES),inhibition at 100 µM [%]
1,"Clc1ccccc1-c1cc(-c2ccc(N3CCCCC3)cc2)on1 [Compound 91, 1-{4-[3-(2-Chlorophenyl)-1,2-oxazol-5-yl]phenyl}piperidine]",29
2,"O=S(=O)(Nc1ccc(-c2n[nH]c(-c3ccc(C(F)(F)F)cc3)n2)cc1)c1ccc(Cl)cc1 [Compound 92, 4-Chloro-N-(4-{5-[4-(trifluoromethyl)phenyl]-1H-1,2,4-triazol-3-yl}phenyl)benzenesulfonamide]",84
3,"CC(C)[C@H](N)C(=O)Nc1ccc(-c2cc(-c3cccc(F)c3)on2)cc1 [Compound 93, (2S)-2-Amino-N-{4-[5-(3-fluorophenyl)-1,2-oxazol-3-yl]phenyl}-3-methylbutanamide hydrochloride]",95
4,"O=C(Nc1ccccc1)Nc1ccc(-c2nc(-c3cccc(C(F)(F)F)c3)no2)cc1 [Compound 94, 1-Phenyl-3-(4-{3-[3-(trifluoromethyl)phenyl]-1,2,4-oxadiazol-5-yl}phenyl)urea]",9
5,"CCOC(=O)c1ccc(-c2noc(-c3ccc(SC)cc3)n2)cc1 [Compound 95, Ethyl 4-{5-[4-(methylsulfanyl)phenyl]-1,2,4-oxadiazol-3-yl}benzoate]",9
6,"CSc1ccc(-c2nc(-c3ccc(C(=O)O)cc3)no2)cc1 [Compound 96, 4-{5-[4-(Methylsulfanyl)phenyl]-1,2,4-oxadiazol-3-yl}benzoic acid]",4
7,"CC1(C)CCc2cc(-c3cc(-c4cccc(Br)c4)[nH]n3)ccc2O1 [Compound 97, 5-(3-Bromophenyl)-3-(2,2-dimethyl-3,4-dihydro-2H-chromen-6-yl)-1H-pyrazole]",10
8,"CN1CCOc2cc(-c3nc(-c4cccc(N5CCOCC5)c4)no3)ccc21 [Compound 98, 4-Methyl-7-{3-[3-(morpholin-4-yl)phenyl]-1,2,4-oxadiazol-5-yl}-3,4-dihydro-2H-1,4-benzoxazine]",22
9,"Cc1ccc([N+](=O)[O-])cc1-c1nc(-c2ccc(F)cc2)n[nH]1 [Compound 99, 3-(4-Fluorophenyl)-5-(2-methyl-5-nitrophenyl)-1H-1,2,4-triazole]",64
10,"Cc1ccc(N)cc1-c1nc(-c2ccc(F)cc2)n[nH]1 [Compound 100, 5-(3-Amino-6-methylphenyl)-3-(4-fluorophenyl)-1H-1,2,4-triazole]",51
11,"CCNC(=O)Nc1ccc(C)c(-c2nc(-c3ccc(F)cc3)n[nH]2)c1 [Compound 101, 1-Ethyl-3-{3-[3-(4-fluorophenyl)-1H-1,2,4-triazol-5-yl]-4-methylphenyl}urea]",69
12,"Cc1ccc(NC(=O)c2cccc(Cl)c2)cc1-c1nc(-c2ccc(F)cc2)n[nH]1 [Compound 102, 3-Chloro-N-{3-[3-(4-fluorophenyl)-1H-1,2,4-triazol-5-yl]-4-methylphenyl}benzamide]",30
13,"Cc1ccc(NC(=O)[C@@H](N)Cc2ccccc2)cc1-c1nc(-c2ccc(F)cc2)n[nH]1 [Compound 103, (2S)-2-Amino-N-{3-[3-(4-fluorophenyl)-1H-1,2,4-triazol-5-yl]-4-methylphenyl}-3-phenylpropanamide hydrochloride]",99
14,"COc1ccc(-c2n[nH]c(-c3cccc(N(C)C)c3)n2)cc1OC [Compound 105, 3-[3-(3,4-Dimethoxyphenyl)-1H-1,2,4-triazol-5-yl]-N,N-dimethylaniline]",77
15,"CCOc1cccc(-c2nc(-c3cccc(C)c3)n[nH]2)c1 [Compound 106, 5-(3-Ethoxyphenyl)-3-(3-methylphenyl)-1H-1,2,4-triazole]",44
16,"Cc1cccc(-c2n[nH]c(-c3cccc(O)c3)n2)c1 [Compound 107, 5-(3-Hydroxyphenyl)-3-(3-methylphenyl)-1H-1,2,4-triazole]",91
17,"CCOC(=O)Nc1cccc(-c2c[nH]c(-c3ccc(F)cc3)n2)c1 [Compound 108, Ethyl {3-[2-(4-fluorophenyl)-1H-imidazol-5-yl]phenyl}carbamate]",51
18,"c1cc2c(cc1-c1cnc(-c3ccc(N4CCOCC4)cc3)[nH]1)CCO2 [Compound 109, 4-{4-[5-(2,3-Dihydro-1-benzofuran-5-yl)-1H-imidazol-2-yl]phenyl}morpholine]",11
19,"CCOc1ccc(-c2coc(-c3cccc(C(C)C)c3)n2)cc1 [Compound 110, 4-(4-Ethoxyphenyl)-2-[3-(propan-2-yl)phenyl]-1,3-oxazole]",18
20,"Clc1ccc(-c2cc(-c3ccc4c(c3)OCCO4)n[nH]2)cc1 [Compound 111, 5-(4-Chlorophenyl)-3-(2,3-dihydro-1,4-benzodioxin-6-yl)-1H-pyrazole]",24
21,"Brc1cccc(-c2cc(-c3ccc4nccnc4c3)n[nH]2)c1 [Compound 112, 6-[5-(3-Bromophenyl)-1H-pyrazol-3-yl]quinoxaline]",44
22,"COc1ccc(-c2c[nH]c(-c3ccc(Cl)cc3)n2)cc1 [Compound 113, 2-(4-Chlorophenyl)-5-(4-methoxyphenyl)-1H-imidazole]",90

row,Structure (SMILES),inhibition at 100 µM [%]
1,"CN1CCN(c2cccc(-c3nc(-c4ccc5c(c4)OCCO5)co3)c2)CC1 [Compound 114, 1-Methyl-4-{3-[4-(2,3-dihydro-1,4-benzodioxin-6-yl)-1,3-oxazol-2-yl]phenyl}piperazine]",93
2,"CCOC(=O)c1ccc(-c2ncc(-c3ccc(C)cc3)o2)cc1 [Compound 115, Ethyl 4-[5-(4-methylphenyl)-1,3-oxazol-2-yl]benzoate]",12
3,"Cc1ccc(-c2cnc(-c3ccc(C(=O)O)cc3)o2)cc1 [Compound 116, 4-[5-(4-Methylphenyl)-1,3-oxazol-2-yl]benzoic acid]",72
4,"COc1ccc(-c2c[nH]c(-c3ccc(Br)cc3)n2)cc1 [Compound 117, 2-(4-Bromophenyl)-5-(4-methoxyphenyl)-1H-imidazole]",97
5,"Oc1ccc(-c2c[nH]c(-c3ccc(Br)cc3)n2)cc1 [Compound 118, 2-(4-Bromophenyl)-5-(4-hydroxyphenyl)-1H-imidazole]",83
6,"CS(=O)(=O)Nc1cccc(-c2ncc(-c3ccc(Cl)c(Cl)c3)o2)c1 [Compound 119, N-{3-[5-(3,4-Dichlorophenyl)-1,3-oxazol-2-yl]phenyl} methanesulfonamide]",15
7,"COC(=O)Nc1cccc(-c2ncc(-c3ccc(Cl)c(Cl)c3)o2)c1 [Compound 120, Methyl {3-[5-(3,4-dichlorophenyl)-1,3-oxazol-2-yl]phenyl}carbamate]",12
8,"CCOC(=O)c1cccc(-c2ncc(-c3ccc(C(F)(F)F)cc3OC)o2)c1 [Compound 121, Ethyl 3-{5-[2-methoxy-4-(trifluoromethyl)phenyl]-1,3-oxazol-2-yl}benzoate]",28
9,"COc1cc(C(F)(F)F)ccc1-c1cnc(-c2cccc(C(=O)O)c2)o1 [Compound 122, 3-{5-[2-Methoxy-4-(trifluoromethyl)phenyl]-1,3-oxazol-2-yl}benzoic acid]",36
10,"CCN(CC)C(=O)c1cccc(-c2ncc(-c3ccc(C(F)(F)F)cc3OC)o2)c1 [Compound 123, N,N-diethyl-3-{5-[2-methoxy-4-(trifluoromethyl)phenyl]-1,3-oxazol-2-yl}benzamide]",33
11,COc1ccc(S(=O)(=O)Nc2ccc(-c3coc(-c4ccc(OC(C)C)cc4)n3)cc2)cc1 [Compound 124],4
12,"CCc1ccc(-c2c[nH]c(-c3cccc(C(=O)O)c3)n2)cc1 [Compound 125, 3-[4-(4-Ethylphenyl)-1H-imidazol-2-yl]benzoic acid]",30
13,"CCc1ccc(-c2cc(-c3cccc(NC(=O)OCCOC)c3)[nH]n2)cc1 [Compound 126, 2-Methoxyethyl {3-[5-(4-ethylphenyl)-1H-pyrazol-3-yl]phenyl}carbamate]",81
14,"O=C(Nc1ccc(F)cc1)Nc1ccc(-c2cc(-c3cccc(OC(F)(F)F)c3)n[nH]2)cc1 [Compound 127, 1-(4-Fluorophenyl)-3-(4-{5-[3-(trifluoromethoxy)phenyl]-1H-pyrazol-3-yl}phenyl)urea]",18
15,"O=C(Nc1ccc(-c2cc(-c3cccc(OC(F)(F)F)c3)n[nH]2)cc1)C(F)(F)F [Compound 128, 2,2,2-Trifluoro-N-(4-{5-[3-(trifluoromethoxy)phenyl]-1H-pyrazol-3-yl}phenyl)acetamide]",6
16,"COc1cc(Cl)cc(-c2nc(-c3ccc(OC(F)(F)F)cc3)co2)c1 [Compound 130, 2-(3-Chloro-5-methoxyphenyl)-4-[4-(trifluoromethoxy)phenyl]-1,3-oxazole]",9
17,"Cc1cc(F)ccc1-c1cnc(-c2cccc(NC(=O)[C@@H](N)CCC(N)=O)c2)o1 [Compound 131, (2S)-2-Amino-N1-{3-[5-(4-fluoro-2-methylphenyl)-1,3-oxazol-2-yl]phenyl}pentanediamide hydrochloride]",47
18,"Oc1cc(Cl)cc(-c2nc(-c3ccc(OC(F)(F)F)cc3)co2)c1 [Compound 132, 2-(3-Chloro-5-hydroxyphenyl)-4-[4-(trifluoromethoxy)phenyl]-1,3-oxazole]",66
19,"N[C@@H](CC(=O)O)C(=O)Nc1ccc(-c2nc(-c3cccc(C(F)(F)F)c3)no2)cc1 [Compound 133, (3S)-3-Amino-4-oxo-4-[(4-{3-[3-(trifluoromethyl)phenyl]-1,2,4-oxadiazol-5-yl}phenyl)amino]butanoic acid hydrochloride]",85
20,"CCOc1ccc(-c2cc(-c3ccc(C)c(C)c3)[nH]n2)cc1 [Compound 134, 3-(3,4-Dimethylphenyl)-5-(4-ethoxyphenyl)-1H-pyrazole]",19
21,"O=C(O)c1ccc(-c2nc(-c3ccc(N4CCCC4)cc3)c[nH]2)cc1 [Compound 135, 4-{4-[4-(Pyrrolidin-1-yl)phenyl]-1H-imidazol-2-yl}benzoic acid]",51
22,"O=S(=O)(Nc1cccc(-c2nc(-c3ccc(OC(F)(F)F)cc3)c[nH]2)c1)c1ccc(Cl)cc1 [Compound 136, 4-Chloro-N-(3-{4-[4-(trifluoromethoxy)phenyl]-1H-imidazol-2-yl}phenyl)benzenesulfonamide]",7
